According to article PMC6476888, “Design and synthesis of anticancer 1-hydroxynaphthalene-2-carboxanilides with a p53 independent mechanism of action” (Scientific Reports, 2019):

Tested on: caspase-8, caspase-9, AIF, cytochrome c, PARP in HCT116 cells
Assay: Western blot of proapoptotic proteins
Format: cell-based, human
Details: p53 null cells
Experimental: These are shown in Figure S5 supplementary information. […] This observation corresponds with the high selectivity of 5s towards the p53^−/− cell line. Moreover, no activation of caspase-8 or AIF was detected after incubation with the tested anilides. Similarly, the cytochrome c level was unaffected. Leakage of cytochrome c from the mitochondria is the first step of caspase-dependent apoptosis, which is often initiated by p53 activation. […] On the other hand, cleavage of PARP as well as a small but evident increase in the PARP level in response to the active compounds was observed. PolyADP-ribose polymerase is the nuclear factor that is responsible for detecting and repairing single strand breaks in DNA[79]. Its inhibition by the cleavage that is induced with caspase-3 is also a classic sign of apoptosis. However, the complex role of this protein is still vague especially in terms of any alternative activation and deactivation factors[80],[81]. Special attention is being paid to alternative ways of cell death for their potential usefulness in designing selectively targeted drugs[82]–[84].
The HCT116 cells were seeded in 3-cm Petri dishes (Nunc) at a density of 0.5·10^6 cells/well and incubated overnight. […] The protein concentration was determined using a Micro BCA™ Protein Assay Kit (Thermo-Fisher Scientific, Waltham, MA, USA c) according to the manufacturer’s instructions. […]

In the case of `O=C(Nc1ccc(F)c(Cl)c1)c1ccc2ccccc2c1O` [5s], the “cleavage of caspases-8 and −9” value is reported as “some cleavage”.
